± gives the standard deviation of the averaged measurements.
How the values were obtained:
Experiment in all cases: level (log10 ratio to DMSO vehicle control); higher = higher biomarker level / cell amount than vehicle control
Conditions in all cases: in DMSO
[1] = compound: FC(F)(F)C(F)(F)CNCC(F)(F)C(F)(F)F [Bis(1H,1H-perfluoropropyl)amine]
Method: (§1)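 BioMAP Diversity Plus panel of 12 human primary cell co-culture systems (3C, 4H, LPS, SAg, BT, BF4T, BE3C, CASM3C, HDF3CGF, KF3CT, MyoF, Mphg). Compounds were added 1 h before stimulation and left for 24 h (MyoF 48 h; BT 72 h for soluble read-outs or 6 d for IgG). Biomarkers were read by ELISA, cytotoxicity by SRB, PBMC viability and proliferation by Alamar Blue. Each well value was divided by the mean of 8 DMSO control wells on the same plate and log10 transformed; duplicate blinded samples were tested at 4 concentrations.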

[2] = compound: O=C(O)C(F)(F)C(F)(F)C(F)(F)C(F)(F)C(F)(F)C(F)(F)C(F)(F)C(F)(F)C(F)(F)C(F)F [11-H-Perfluoroundecanoic acid]
Method: as §1

[3] = compound: O=C(O)C=CC(F)(C(F)(F)F)C(F)(F)F [3-(Perfluoroisopropyl)-2-propenoic acid]
Method: as §1

Nonafluoropentanamide = compound: NC(=O)C(F)(F)C(F)(F)C(F)(F)C(F)(F)F [Nonafluoropentanamide]
Method: as §1

Hexafluoroamylene glycol = compound: OCC(F)(F)C(F)(F)C(F)(F)CO [Hexafluoroamylene glycol]
Method: as §1

[4] = compound: O=S(=O)(O)C(F)(F)C(F)(F)C(F)(F)C(F)(F)C(F)(F)C(F)(F)C(F)(F)C(F)(F)C(F)(F)C(F)(F)F [Sodium perfluorodecanesulfonate]
Method: as §1

Row | Test System | level (log10) ([1]; 6700 nM) | level (log10) ([1]; 20000 nM) | level (log10) ([1]; 60000 nM) | level (log10) ([2]; 6700 nM) | level (log10) ([2]; 20000 nM) | level (log10) ([3]; 6700 nM) | level (log10) ([3]; 20000 nM) | level (log10) ([3]; 60000 nM) | level (log10) (Nonafluoropentanamide; 6700 nM) | level (log10) (Nonafluoropentanamide; 20000 nM) | level (log10) (Nonafluoropentanamide; 60000 nM) | level (log10) (Hexafluoroamylene glycol; 6700 nM) | level (log10) (Hexafluoroamylene glycol; 20000 nM) | level (log10) (Hexafluoroamylene glycol; 60000 nM) | level (log10) ([4]; 1500 nM) | level (log10) ([4]; 4400 nM) | level (log10) ([4]; 13000 nM) | level (log10) ([4]; 40000 nM)
1 | lMphg:CD40 | 0.006 ± 0.0057 | 0.006 ± 0.0028 | -0.0065 ± 0.0092 | -0.0365 ± 0.005 | -0.04 ± 0.021 | -0.0395 ± 0.053 | -0.01 ± 0.025 | -0.0045 ± 0.019 | 0.0255 ± 0.03 | 0.0255 ± 0.029 | -0.0095 ± 0.012 | -0.0175 ± 0.0021 | -0.002 ± 0.0028 | -0.0285 ± 0.039 | -0.0305 ± 0.0078 | -0.0285 ± 0.016 | -0.0455 ± 0.012 | -0.104 ± 0.018
2 | lMphg:CXCL8/IL-8 | 0 ± 0.011 | 0.0075 ± 0.069 | -0.0035 ± 0.053 | -0.0045 ± 0.0078 | -0.031 ± 0.0042 | -0.0225 ± 0.0021 | -0.006 ± 0.0028 | 0.0415 ± 0.054 | 0.012 ± 0.041 | 0.005 ± 0.02 | 0.027 ± 0.014 | 0.014 ± 0.021 | -0.0215 ± 0.016 | 0.0185 ± 0.06 | 0.0185 ± 0.032 | 0.0015 ± 0.005 | 0.042 ± 0.0071 | 0.131 ± 0.013
3 | CASM3C:CD142/Tissue Factor | -0.0175 ± 0.0021 | -0.0085 ± 0.054 | -0.0095 ± 0.046 | -0.031 ± 0.0085 | -0.0365 ± 0.012 | -0.037 ± 0.028 | -0.0315 ± 0.053 | -0.01 ± 0.067 | 0.0195 ± 0.13 | 0.0125 ± 0.026 | -0.031 ± 0.028 | -0.0025 ± 0.016 | -0.0125 ± 0.0035 | 0.008 ± 0.024 | 0.044 ± 0.025 | -0.0045 ± 0.021 | 0.0295 ± 0.036 | 0.082 ± 0.016
4 | MyoF:Collagen I | -0.005 ± 0.0057 | -0.014 ± 0.0099 | 0.0035 ± 0.015 | -0.0625 ± 0.0092 | -0.312 ± 0.023 | -0.0025 ± 0.012 | -0.002 ± 0.0042 | 0.002 ± 0.0085 | -0.015 ± 0.025 | -0.0085 ± 0.047 | 0.001 ± 0.0071 | 0.012 ± 0.0028 | -0.0045 ± 0.016 | 0.019 ± 0.017 | -0.003 ± 0.02 | -0.006 ± 0.0028 | -0.003 ± 0.0057 | -0.0415 ± 0.00071
5 | CASM3C:CD141/Thrombomodulin | 0.019 ± 0.011 | 0.007 ± 0.0099 | 0.001 ± 0.02 | -0.015 ± 0.021 | -0.0085 ± 0.019 | -0.0215 ± 0.011 | -0.001 ± 0.023 | 0.0075 ± 0.033 | 0.011 ± 0.089 | -0.024 ± 0.064 | -0.0285 ± 0.06 | 0.009 ± 0.041 | 0 ± 0.05 | 0.0135 ± 0.037 | 0.0625 ± 0.015 | 0.034 ± 0.0028 | 0.03 ± 0.038 | 0.166 ± 0.0092
6 | MyoF:TIMP-1 | -0.0225 ± 0.039 | 0.0005 ± 0.067 | -0.0035 ± 0.0064 | 0.0255 ± 0.029 | 0.063 ± 0.0057 | -0.0285 ± 0.00071 | -0.0085 ± 0.013 | 0.0535 ± 0.037 | -0.019 ± 0.0057 | 0.01 ± 0.035 | 0.001 ± 0.0085 | -0.041 ± 0.05 | -0.0385 ± 0.06 | -0.039 ± 0.065 | -0.037 ± 0.014 | -0.0445 ± 0.016 | -0.0415 ± 0.04 | -0.0725 ± 0.044
7 | BE3C:SRB | -0.002 ± 0.0057 | -0.004 | 0.003 ± 0.0071 | -0.0095 ± 0.0064 | -0.235 ± 0.011 | -0.0005 ± 0.005 | -0.002 ± 0.0014 | 0.013 ± 0.021 | 0.0035 ± 0.011 | 0.0065 ± 0.0035 | -0.0005 ± 0.005 | -0.002 ± 0.0014 | -0.006 ± 0.0028 | 0.0075 ± 0.0021 | 0.0005 ± 0.0021 | 0 ± 0.0014 | -0.0555 ± 0.028 | -0.368 ± 0.069
8 | 4H:SRB | -0.0245 ± 0.013 | 0 ± 0.017 | 0.0015 ± 0.013 | 0.0145 ± 0.0092 | 0.0105 ± 0.018 | 0.001 ± 0.018 | -0.0045 ± 0.029 | 0.004 ± 0.021 | -0.0055 ± 0.00071 | -0.0055 ± 0.011 | 0.0055 ± 0.021 | -0.0055 ± 0.0035 | -0.004 ± 0.0071 | 0.005 ± 0.02 | -0.003 ± 0.0042 | -0.004 ± 0.0071 | -0.017 ± 0.0014 | -0.023 ± 0.0099
9 | lMphg:SRB | -0.0085 ± 0.00071 | -0.007 ± 0.0028 | 0.009 ± 0.018 | -0.004 ± 0.0057 | 0.017 ± 0.0099 | -0.017 ± 0.0085 | -0.012 ± 0.0099 | -0.0085 ± 0.012 | 0.003 ± 0.014 | 0.003 ± 0.0071 | -0.006 ± 0.0042 | 0.0055 ± 0.015 | 0.007 ± 0.02 | -0.002 | -0.0075 ± 0.012 | -0.0025 ± 0.00071 | -0.001 ± 0.0099 | -0.011 ± 0.0099
10 | LPS:CCL2/MCP-1 | -0.0105 ± 0.00071 | -0.006 ± 0.0085 | 0.0015 ± 0.03 | -0.009 ± 0.0085 | -0.022 ± 0.0099 | 0.004 ± 0.0085 | -0.0155 ± 0.013 | -0.0015 ± 0.0021 | 0.005 ± 0.011 | 0.022 ± 0.035 | 0.0325 ± 0.039 | 0.0055 ± 0.012 | -0.009 ± 0.03 | 0.0135 ± 0.04 | -0.0165 ± 0.011 | -0.041 ± 0.0085 | -0.0235 ± 0.033 | -0.0655 ± 0.077
11 | MyoF:CXCL8/IL-8 | -0.024 ± 0.0028 | -0.003 ± 0.018 | 0.019 ± 0.033 | -0.0375 ± 0.03 | -0.071 ± 0.028 | -0.0445 ± 0.0064 | -0.032 ± 0.0028 | -0.0025 ± 0.019 | -0.0255 ± 0.00071 | -0.01 ± 0.024 | 0.0125 ± 0.015 | -0.0385 ± 0.028 | -0.0325 ± 0.018 | 0.001 ± 0.075 | -0.04 ± 0.0071 | -0.039 ± 0.0071 | -0.021 ± 0.023 | 0.02 ± 0.044
12 | KF3CT:CCL2/MCP-1 | -0.0015 ± 0.05 | 0.001 ± 0.048 | -0.012 ± 0.042 | -0.043 ± 0.021 | -0.129 ± 0.0078 | -0.012 ± 0.017 | 0 ± 0.027 | 0.0105 ± 0.053 | 0.0175 ± 0.032 | 0.02 ± 0.0042 | 0.0215 ± 0.018 | 0.0125 ± 0.005 | 0.012 ± 0.0085 | 0.0085 ± 0.021 | 0.037 ± 0.0099 | -0.0155 ± 0.042 | -0.0485 ± 0.029 | -0.023 ± 0.038
13 | lMphg:CCL2/MCP-1 | 0.0015 ± 0.0035 | 0.001 ± 0.013 | -0.02 ± 0.042 | -0.0145 ± 0.025 | 0.0085 ± 0.028 | -0.023 ± 0.014 | -0.0275 ± 0.011 | 0.006 ± 0.03 | 0.0005 ± 0.0021 | 0.0025 ± 0.049 | 0.0225 ± 0.037 | -0.001 ± 0.03 | -0.0115 ± 0.0064 | -0.007 ± 0.023 | 0.022 ± 0.0028 | -0.0035 ± 0.013 | 0.0135 ± 0.005 | 0.0225 ± 0.026
14 | MyoF:PAI-I | -0.005 ± 0.011 | 0.007 ± 0.013 | 0.011 ± 0.0014 | 0.0105 ± 0.012 | -0.013 ± 0.02 | 0.0125 ± 0.0078 | 0.007 ± 0.0099 | 0.009 ± 0.0014 | 0.006 ± 0.011 | 0.012 ± 0.0057 | 0.021 ± 0.0014 | -0.0045 ± 0.0064 | -0.0105 ± 0.00071 | 0.01 ± 0.011 | 0.019 ± 0.02 | 0.0335 ± 0.029 | 0.0505 ± 0.0035 | 0.063 ± 0.0085
15 | 3C:CD54/ICAM-1 | 0 ± 0.016 | 0.001 ± 0.0085 | 0.006 ± 0.0014 | -0.012 ± 0.023 | -0.019 ± 0.0014 | -0.013 ± 0.033 | -0.0185 ± 0.025 | -0.003 ± 0.013 | -0.0155 ± 0.005 | -0.0025 ± 0.0092 | 0.005 ± 0.021 | -0.01 ± 0.0085 | -0.0325 ± 0.005 | -0.016 ± 0.023 | 0.0115 ± 0.005 | -0.0015 ± 0.00071 | 0.0115 ± 0.021 | 0.0145 ± 0.0078
